Several values for one entry are separate records, joined by “and”; a condition that tells them apart may be missing. Equal entries are not always repeated.
Molecular target: T1, Nicotinate-nucleotide adenylyltransferase (Escherichia coli (strain K12), UniProt P0A752)
T1 sequence (P0A752 whole entry): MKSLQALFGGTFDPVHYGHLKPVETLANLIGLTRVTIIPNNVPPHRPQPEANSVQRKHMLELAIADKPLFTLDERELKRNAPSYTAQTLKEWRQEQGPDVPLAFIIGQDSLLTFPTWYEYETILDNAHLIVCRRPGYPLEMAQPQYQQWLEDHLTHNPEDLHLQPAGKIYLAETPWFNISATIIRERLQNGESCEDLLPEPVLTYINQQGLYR
Assay: Enzymatic Inhibition Assay
Description: The enzymatic assay was masured at fixed NaMN and ATP concentration (equal to two-fold km values)with various concentration of inhibitory compounds.

In the case of O=C(CCC(=O)Nc1cccc(Cl)c1)NN=Cc1c2ccccc2cc2ccccc12 [NadD inhibitor 1_02], the Ki is reported as 8 µM and 5 µM.
